This is an account of results in article PMC8904520, “Characterization of a small-molecule inhibitor targeting NEMO/IKKβ to suppress colorectal cancer growth” (Signal Transduction and Targeted Therapy, 2022).

Series [1] has as its target T1, GST-NEMO (1–196) (Homo sapiens, UniProt Q9Y6K9).
T1 construct: assays using MBP-IKKβ (701–745) and GST-NEMO (1–196) peptides; made in house; host or cells: E. coli BL21(DE3)
Description: MST binding assay to NEMO.

The target in the next series is T2, IKKβ (Homo sapiens, UniProt O14920).
T2 construct: endogenous in cells; host or cells: LoVo cells
In words: IKKβ kinase activity in LoVo cells (spectrophotometric kit). In kind it is cell-based. How it is done:
Fig. 3 Effect of SHK on NEMO/IKKβ/NF-κB signaling. a The protein levels of NEMO, p-IKKβ/IKKβ, and p-IκBα/IκBα in LoVo cells treated with the indicated doses of SHK were analyzed by western blotting. b The protein levels of NEMO, p-IKKβ/IKKβ, p-IκBα/IκBα protein in tumor tissues were analyzed by western blotting. c LoVo cells were co-transfected with pNFκB-luc containing a Renilla luciferase reporter (as internal control) for 24 h and then treated with SHK for 48 h. Luciferase activity was determined using a dual-luciferase reporter assay system. d The IKKβ kinase activity was assessed using a spectrophotometric quantitative detection kit in LoVo cells. The relative activity was calculated using the provided formula. e The subcellular localizations of p50/p65 in LoVo cells following 48 h of treatment with SHK was examined by confocal microscopy analysis. The protein levels of p65 and p50 in nucleus (f) and whole-cell lysates (g) were measured by western blot analysis. Lamin B1 and β-actin were used as controls for sample loading. h The binding of p65 and p50 to a COX-2 promoter probe was analyzed using a streptavidin-agarose pull-down assay. The data are presented as the means ± SD of at least three separate experiments. (*p < 0.05, **p < 0.01, SHK treatment group vs. vehicle control group)

The test system of series [2] is colorectal cancer cells (LoVo, RKO, SW620, HCT15, HCT116). In words: CCK-8 cell viability assay, colorectal cancer cells. In kind it is cell-based, human. As to conditions: 48 h. How it is done:
Cell viability was determined using the CCK-8 assay. Briefly, 5×10³ cells were seeded into 96-well culture plates, allowed to adhere for overnight, and then changed to fresh medium containing various concentrations of SHK (0, 0.5, 1, 2 and 5 µM) dissolved in DMSO (final concentration, 0.1%). After incubation for 48 h, the CCK-8 reagent was added, and the absorbance was measured at 450 nm using an EnSpire® Multimode Plate Reader (Perkin Elmer, USA). The cell viability in the vehicle control groups was defined as 100%. Each assay was carried out in triplicate.
A general note: Tetrazolium dyes change colour on reduction, which living cells bring about.

In series [3] the target is T1, GST-NEMO (1–196). In words: SPR affinity assay on captured GST-NEMO. In kind it is binding. The method, then:
According to the instructions from GE, an anti-GST antibody was immobilized onto the CM5 chip surface. The sensor surface was activated with NHS and EDC, after which 15 μg/mL of anti-GST antibody was injected for 420 s and the surface was blocked with 1 M ethanolamine, pH 8.5. […] For each analyte, 50 μg/mL of GST-G was captured for 60 s and 10 mM glycine-HCl (pH 2.1) was used to regenerate the surface. MBP-B was analyzed with 120 s injection and 120 s dissociation. A series of SHK concentrations was analyzed with 90 s injection and 90 s dissociation.

In a further series the test system is LoVo xenograft tumor. In words: LoVo xenograft tumor model. Type of series: in vivo, athymic nude mice. As to conditions: mice. The method, then:
Female athymic nude mice aged 5 weeks were purchased from Beijing Vital River Laboratory Animal Technology Co., Ltd., and kept in the SPF Laboratory Animal Center of Dalian Medical University (Dalian, China). All animals were given free access to sterilized food and water and were habituated for 7 days before the experiments. All procedures were carried out in strict accordance with the recommendations established by the Animal Care and Ethics Committee of Dalian Medical University as well as the guidelines promulgated in the U.S. National Institutes of Health Guide for the Care and Use of Laboratory Animals. LoVo cells (LoVo/wt and LoVo/ mut, 5×10^6 in 100 μL PBS) were injected subcutaneously near the axillary fossa of each nude mouse. Two weeks later, when the formed tumor reached 3-4mm, the animals were divided randomly into three groups with 5 mice in each group. […] The tumors were measured with a caliper once every two days, and the tumor volume was calculated using the formula V = 1/2 (width^2 × length). The body weight of the animals was also recorded. After treatment with SHK for 15 days, all experimental mice were sacrificed and the tumors from each mouse were excised and their weight was measured. To determine the expression of the indicated proteins, the tumor tissues were fixed with 10% neutral formalin and embedded in paraffin. Then, 4 μm sections were stained with hematoxylin and eosin, in combination with specific antibodies (iNOS (1:100), COX-2 (1:50), IL-6 (1:100)), and TNFα (1:200)). The stained samples were examined under a Leica DM 4000B fluorescence microscope equipped with a digital camera. The other parts of the tumors were used to prepare tumor tissue lysates for western blot analysis.

T1 sequence (Q9Y6K9 1-196): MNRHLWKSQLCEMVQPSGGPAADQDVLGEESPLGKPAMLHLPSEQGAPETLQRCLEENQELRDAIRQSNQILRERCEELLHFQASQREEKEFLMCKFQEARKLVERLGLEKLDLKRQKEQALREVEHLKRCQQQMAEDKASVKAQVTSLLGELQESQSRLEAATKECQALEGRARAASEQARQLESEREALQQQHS
T2 sequence (Q9Y6K9 whole entry partner): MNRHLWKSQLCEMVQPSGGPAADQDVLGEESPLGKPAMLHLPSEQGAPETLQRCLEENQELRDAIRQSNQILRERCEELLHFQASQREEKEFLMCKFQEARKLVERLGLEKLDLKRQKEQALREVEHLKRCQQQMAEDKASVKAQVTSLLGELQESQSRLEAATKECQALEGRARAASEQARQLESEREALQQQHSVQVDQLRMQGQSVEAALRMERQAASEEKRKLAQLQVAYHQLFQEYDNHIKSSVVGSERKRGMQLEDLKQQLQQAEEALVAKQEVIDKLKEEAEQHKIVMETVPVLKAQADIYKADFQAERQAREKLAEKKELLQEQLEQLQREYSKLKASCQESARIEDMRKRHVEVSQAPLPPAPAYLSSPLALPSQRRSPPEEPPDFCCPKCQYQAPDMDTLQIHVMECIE
T2 sequence (O14920 whole entry): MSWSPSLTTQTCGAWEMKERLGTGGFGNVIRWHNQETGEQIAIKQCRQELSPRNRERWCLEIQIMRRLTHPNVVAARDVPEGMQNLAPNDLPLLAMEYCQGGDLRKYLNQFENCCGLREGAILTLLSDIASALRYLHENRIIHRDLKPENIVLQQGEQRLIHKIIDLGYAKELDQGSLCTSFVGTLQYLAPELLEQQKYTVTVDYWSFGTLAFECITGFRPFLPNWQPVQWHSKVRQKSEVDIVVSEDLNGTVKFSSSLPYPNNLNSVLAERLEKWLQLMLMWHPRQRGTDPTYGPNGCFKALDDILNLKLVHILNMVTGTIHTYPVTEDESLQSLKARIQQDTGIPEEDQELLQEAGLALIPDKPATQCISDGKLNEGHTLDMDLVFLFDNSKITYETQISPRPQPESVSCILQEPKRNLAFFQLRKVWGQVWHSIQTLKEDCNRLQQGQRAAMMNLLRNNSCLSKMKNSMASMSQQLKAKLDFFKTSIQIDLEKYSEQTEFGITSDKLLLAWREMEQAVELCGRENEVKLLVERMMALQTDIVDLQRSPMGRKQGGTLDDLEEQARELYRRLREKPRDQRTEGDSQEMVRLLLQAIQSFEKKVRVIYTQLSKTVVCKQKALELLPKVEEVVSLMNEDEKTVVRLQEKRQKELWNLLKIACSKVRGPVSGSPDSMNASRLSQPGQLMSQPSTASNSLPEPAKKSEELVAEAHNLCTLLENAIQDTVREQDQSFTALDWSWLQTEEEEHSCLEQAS

For orientation: Kd means the constant that tells how readily two partners part at equilibrium. Regarding `CC(C)=CC[C@@H](O)C1=CC(=O)c2c(O)ccc(O)c2C1=O` [SHK, Shikonin], the Kd came to 14.2 ± 1.7 µM on GST-NEMO (1–196) [1] and 8.29 ± 2.38 µM on GST-NEMO (1–196) [3]. Moreover, the “phosphorylation and kinase activity of IKKβ” value on IKKβ is “suppressed the phosphorylation and kinase activity of IKKβ in a dose-dependent manner”. For the same molecule, the IC50 in series [2] (Homo sapiens, CCK-8, range over cell lines, read-out: IC50 for inhibition of proliferation in colorectal cancer cells) lay within 0.6 to 2.5 µM. Moreover, in series [2] (LoVo, RKO, SW620, HCT15, HCT116), the “growth inhibition of cancer cell lines” value is listed as “dose-dependent growth inhibition”. In addition, in the series with LoVo xenograft tumor (2.5 and 5 mg/kg daily), the tumor volume result was “dramatically decreased”. In the series with LoVo xenograft tumor (2.5 and 5 mg/kg daily), the tumor weight entry is listed as “dramatically decreased”. Besides, the “side effects (body weight)” value with LoVo xenograft tumor (2.5 and 5 mg/kg) is listed as “slight side effects”.
